Patent US20170065564A1, “BIS-CYCLIC GUANIDINE COMPOUND COMPOSITIONS, METHODS OF USE AND TREATMENT THEREOF” (University of South Florida, priority 2014, published 2017)

Experiments:
Format in all cases: cell-based
Staphylococcus aureus = assay: MIC micro broth dilution assay; parameters: key to stacked score activity, 100/MIC, S: stacked score = 100/MIC; settings: S. aureus
Method: (§1) For this study we used a representative panel of multi-drug resistant clinical ESKAPE pathogen isolates (Supplemental Table S6).^42 43 3a, 44 45 Gram-positive organisms were grown in tryptic soy broth media (TSB), whilst Gram-negative organisms were grown in lysogeny Broth (LB), as described by us previously. ^43 MIC and MBC determination assays.
(§2) Broth cultures of ESKAPE strains were grown overnight before being diluted 1 in 1,000 in fresh media. Sterile 96-well plates were loaded with culture and compounds (in DMF) were added at decreasing concentrations to equal a total volume of 200 μl per well. Care was taken to not add more than 2.0% DMF to any well. Plates were then incubated at 37° C., and MICs determined after 24 hours by visual inspection for a lack of turbidity in wells. All assays were performed in triplicate with identical results obtained. For both the scaffold ranking and positional scanning samples, relative broad-spectrum activity was determined via stacked scores: […]

Klebsiella pneumoniae = assay: MIC micro broth dilution assay; parameters: key to stacked score activity, 100/MIC, K: stacked score = 100/MIC; settings: K. pneumoniae
Method: as §1, §2

Acinetobacter baumannii = assay: MIC micro broth dilution assay; parameters: key to stacked score activity, 100/MIC, A: stacked score = 100/MIC; settings: A. baumannii
Method: as §1, §2

Enterobacter cloacae = assay: MIC micro broth dilution assay; parameters: key to stacked score activity, 100/MIC, E: stacked score = 100/MIC; settings: E. cloacae
Method: as §1, §2

Enterococcus faecium = assay: MIC micro broth dilution assay; parameters: key to stacked score activity, 100/MIC, E: stacked score = 100/MIC; settings: E. faecium
Method: as §1, §2

ESKAPE pathogens = assay: MIC micro broth dilution assay, statements and stacked scores over all ESKAPE pathogens; settings: letters E,S,K,A,P,E = ESKAPE pathogens, — = none
Method: as §1
as §2, with “The minimum inhibitory concentration (MIC) for the combinatorial libraries, deconvolved 2157 library, and individual compounds were determined as follows. Broth” for “Broth”

stacked score activity, 100/MIC, S (Staphylococcus aureus) | stacked score activity, 100/MIC, K (Klebsiella pneumoniae) | stacked score activity, 100/MIC, A (Acinetobacter baumannii) | stacked score activity, 100/MIC, E (Enterobacter cloacae) | stacked score activity, 100/MIC, E (Enterococcus faecium) | Compound | pathogens against which the compound showed activity at 4 ug/ml (ESKAPE pathogens; dose 4 ug/ml) | pathogens against which the compound showed activity at 5 ug/ml (ESKAPE pathogens; dose 5 ug/ml) | pathogens against which the compound showed activity at 10 ug/ml (ESKAPE pathogens; dose 10 ug/ml) | pathogens against which the compound showed activity at 25 ug/ml (ESKAPE pathogens; dose 25 ug/ml)
33 | 25 | 25 | 20 | 25 | CCCC[C@H]1CN(CCCC[C@H]2CNC(=N)N2CCc2cccc(C(F)(F)F)c2)C(=N)N1CCc1ccc(-c2ccccc2)cc1 [Compound 3] | ESKA | ESKAPE | ESKAPE | ESKAPE
10 | 0 | 0 | 0 | 4 | N=C1NC[C@H](CCCCN2C[C@@H](Cc3cccc4ccccc34)N(CCc3ccc(-c4ccccc4)cc3)C2=N)N1CCC12CC3CC(CC(C3)C1)C2 [Compound 24] |  |  |  | 
0 | 0 | 0 | 0 | 0 | CCCCCCCN1C(=N)NC[C@@H]1CCCCN1CCNC1=N [Compound 28] |  |  |  | 
4 | 0 | 0 | 0 | 0 | CCCCCCCN1C(=N)NC[C@@H]1CCCCN1CCN(CCc2cccc(C)c2)C1=N [Compound 29] |  |  |  | 
0 | 0 | 0 | 0 | 0 | CCCCCCCN1C(=N)NC[C@@H]1CCCCN1CCN(CC(C)CC)C1=N (some centres unmarked) [Compound 30] |  |  |  | 
4 | 0 | 0 | 0 | 0 | CCCCCCCN1C(=N)NC[C@@H]1CCCCN1C[C@H](C(C)CC)NC1=N (some centres unmarked) [Compound 31] |  |  |  | 
4 | 0 | 0 | 0 | 0 | CCCCCCCN1C(=N)NC[C@@H]1CCCCN1C[C@H](C(C)CC)N(CC(C)CC)C1=N (some centres unmarked) [Compound 33] |  |  |  | 
4 | 0 | 0 | 0 | 0 | CCCCCCCN1C(=N)NC[C@@H]1CCCCN1C[C@@H](CCC)NC1=N [Compound 34] |  |  |  | 
4 | 0 | 0 | 0 | 0 | CCCCCCCN1C(=N)NC[C@@H]1CCCCN1C[C@@H](CCC)N(CC(C)CC)C1=N (some centres unmarked) [Compound 36] |  |  |  | 
0 | 0 | 0 | 0 | 0 | N=C1NCCN1CCCC[C@H]1CNC(=N)N1CC1CCCCC1 [Compound 37] |  |  |  | 
4 | 0 | 0 | 0 | 0 | Cc1cccc(CCN2CCN(CCCC[C@H]3CNC(=N)N3CC3CCCCC3)C2=N)c1 [Compound 38] |  |  |  | 
0 | 0 | 0 | 0 | 0 | CCC(C)CN1CCN(CCCC[C@H]2CNC(=N)N2CC2CCCCC2)C1=N (some centres unmarked) [Compound 39] |  |  |  | 
0 | 0 | 0 | 0 | 0 | CCC(C)[C@H]1CN(CCCC[C@H]2CNC(=N)N2CC2CCCCC2)C(=N)N1 (some centres unmarked) [Compound 40] |  |  |  | 
4 | 0 | 0 | 0 | 0 | CCC(C)[C@H]1CN(CCCC[C@H]2CNC(=N)N2CC2CCCCC2)C(=N)N1CCc1cccc(C)c1 (some centres unmarked) [Compound 41] |  |  |  | 
4 | 0 | 0 | 0 | 0 | CCC(C)CN1C(=N)N(CCCC[C@H]2CNC(=N)N2CC2CCCCC2)C[C@@H]1C(C)CC (some centres unmarked) [Compound 42] |  |  |  | 
0 | 0 | 0 | 0 | 0 | CCC[C@@H]1CN(CCCC[C@H]2CNC(=N)N2CC2CCCCC2)C(=N)N1 [Compound 43] |  |  |  | 
4 | 0 | 0 | 0 | 0 | CCC[C@@H]1CN(CCCC[C@H]2CNC(=N)N2CC2CCCCC2)C(=N)N1CCc1cccc(C)c1 [Compound 44] |  |  |  | 
4 | 0 | 0 | 0 | 0 | CCC[C@@H]1CN(CCCC[C@H]2CNC(=N)N2CC2CCCCC2)C(=N)N1CC(C)CC (some centres unmarked) [Compound 45] |  |  |  | 
0 | 0 | 0 | 0 | 0 | CC1CCC(CN2C(=N)NC[C@@H]2CCCCN2CCNC2=N)CC1 (some centres unmarked) [Compound 46] |  |  |  | 
4 | 0 | 0 | 0 | 0 | Cc1cccc(CCN2CCN(CCCC[C@H]3CNC(=N)N3CC3CCC(C)CC3)C2=N)c1 (some centres unmarked) [Compound 47] |  |  |  | 
0 | 0 | 0 | 0 | 0 | CCC(C)CN1CCN(CCCC[C@H]2CNC(=N)N2CC2CCC(C)CC2)C1=N (some centres unmarked) [Compound 48] |  |  |  | 
4 | 0 | 0 | 0 | 0 | CCC(C)[C@H]1CN(CCCC[C@H]2CNC(=N)N2CC2CCC(C)CC2)C(=N)N1 (some centres unmarked) [Compound 49] |  |  |  | 
4 | 0 | 0 | 0 | 0 | CCC(C)CN1C(=N)N(CCCC[C@H]2CNC(=N)N2CC2CCC(C)CC2)C[C@@H]1C(C)CC (some centres unmarked) [Compound 51] |  |  |  | 
4 | 0 | 0 | 0 | 0 | CCC[C@@H]1CN(CCCC[C@H]2CNC(=N)N2CC2CCC(C)CC2)C(=N)N1 (some centres unmarked) [Compound 52] |  |  |  | 
4 | 0 | 0 | 0 | 0 | CCC[C@@H]1CN(CCCC[C@H]2CNC(=N)N2CC2CCC(C)CC2)C(=N)N1CCc1cccc(C)c1 (some centres unmarked) [Compound 53] |  |  |  | 
4 | 0 | 0 | 0 | 0 | CCC[C@@H]1CN(CCCC[C@H]2CNC(=N)N2CC2CCC(C)CC2)C(=N)N1CC(C)CC (some centres unmarked) [Compound 54] |  |  |  | 
